Measured values from patent US7205261B2, “Use of certain N-acylethanolamines to achieve ethylene- and cytokinin-like effects in plants and fungi” (Nutra-Park, Inc., priority 2002, dated 2007).
Like-named read-outs stand apart in the source and are kept apart here.

How the values were obtained:
[1] = test system: tomato variety FL47 mature green tomatoes; assay: Tomato bioassay (spray application or vacuum infiltration of harvested mature green tomatoes, ripening judged by colour); type: in vivo; conditions: 5 to 7 days after treatment, FIGS. 2-5
Procedure: Tomato bioassay: NAE solutions containing 20 ppm or 500 ppm of NAE were used to treat harvested tomatoes as described below. The solutions were prepared by dispersing a solid NAE compound in water through sonication.
Egg LPE was purchased from Avanti Polar Lipids (Alabaster, Ala.). Egg LPE solutions containing 20 ppm or 500 ppm LPE were used as positive controls in the assays described below. The solutions were prepared by dispersing LPE into water through sonication or aggressive agitation.
The tomatoes used in this study were tomato variety FL47 (cultivar), 6×6 mature green tomatoes of good quality MG3–4 ([…]: no apparent external change from green to pink). The tomatoes were purchased from West Coast Tomato (Palmetto, Fla.) and Dimare Tomato (Homestead, Fla.).
The system used for classifying tomato mature stages is as the follows: Green (Stage 1)—“Green” means that the surface of the tomato is completely green in color. The shade of green may vary from light to dark. Breakers (Stage 2)—“Breakers” means there is a definite “break” in color from green, to tannish-yellow, pink or red on not more than 10% of the surface. […] Red (R) (Stage 6)—“Red” means that more than 90% of the surface, in the aggregate, is red.
Locules contain hard, white substance. […] Seeds are forming and are white. […] Seeds are fully formed and are turning from white to beige. MG4-Fruit are softening a little but still completely green on the outside. Inside locular gel is completely formed with hints of pink coloration in the columella tissue. Seeds are dark beige to light brown.
In spray application bioassays, the tomatoes were placed in 100° F. water for 90 seconds, after which the tomatoes were removed from water and placed stem scar up onto a sheet of plastic. An NAE solution or LPE solution was sprayed onto the tomatoes at 30 psi using a flat fan tip situated approximately 8 to 10 inches above the tomatoes. The tomatoes were air dried and placed on a sheet of white paper with stem scar down under consistent environmental conditions. Five to seven days later, the ripening of the tomatoes were determined by visual observation of the color of the tomatoes.
In vacuum infiltration bioassay, each tomato was placed on top of a vacuum bell jar platform with stem scar facing up. 0.5 ml of NAE solution or LPE solution was placed onto stem scar and the glass bell jar lid was lowered onto the jar platform. The vacuum was started and the air escaped from the interior of the tomato causing the NAE solution or the LPE solution on the stem scar to bubble. After a preset time period, the air inlet was opened slowly to release vacuum in the bell jar. […] Five to seven days later, the ripening of the tomatoes were determined by visual observation of the color of the tomatoes.

maize roots = assay: Corn root bioassay (ethylene production by maize roots); type: in vivo, Zea mays L.; conditions: 20 mg/l; for activity at 20 µg/mL: Zea mays, read-out: Ethylene, % of control
Procedure: Corn root bioassay: It is well established that roots of Zea mays produce ethylene when exposed to a variety of stresses (for review, see Morgan, PW and Drew, MC, Physiologia Plantarum 100: 620–630, 1997). Mechanical impedance and hypoxia both induce ethylene formation and usually as early as 1 hour after exposure. In response to ethylene treatment, maize roots show decreased expansion and elongation, a high incidence of cell death and the formation of aerenchyma tissue—particularly evident when roots are exposed to hypoxic conditions (Drew, MC et al., Trends in Plant Science 5: 123–127, 2000, Morgan and Drew 1997).
Seeds of Zea mays L. were sown in flats of Perlite, covered with a layer of vermiculite, and irrigated daily with water and/or 1/10 Hoagland solution. Seedlings were cultivated under continuous illumination at 22–25° C. and used when 7 d old. Seedlings were removed from the Perlite and washed under running tap water. Seedlings were allowed to acclimate in water and/or 1/10 Hoagland solution for several hours before being transferred to Falcon tubes containing the test compounds (all 20 mg/l) prepared in 1/10 Hoagland solution. […] Roots were then transferred to gas-tight tubes each containing 200 μl of water. The tubes were sealed and incubated at 26° C. for 1–2 h in darkness before gas samples were drawn from the incubation tubes using a 1 ml syringe and assayed by gas chromatography (Romera, FJ et al. (1999) Annals of Botany 83, 51–55).

[2] = test system: Raphanus sativus L. cv. Cherry Belle cotyledons; assay: Radish cotyledon bioassay (expansion growth and chlorophyll accumulation); type: in vivo; conditions: for Change in fresh weight: continuous illumination, 25° C., ten cotyledons; for activity at 20 µg/mL: Raphanus sativus, read-out: Change in fresh weight, % of control
From the text: Radish cotyledon bioassay: This bioassay using Raphanus sativus L. cv. Cherry Belle cotyledons was developed by Letham, DS (Physiologia Plantarum 25, 391–396, 1971, incorporated by reference in its entirety) to evaluate the efficacy of cytokinin on cell enlargement. Success using this assay is not restricted to radish. […] In addition to their effect on cell division, cytokinin plays a major role in driving cell enlargement. Compounds in this class of phytohormone and with cytokinin activity also help maintain photosynthetic activity and productivity and abolish proteolytic activity. In cotyledon leaf systems, a requirement for cytokinin is critical and removal of the roots (i.e. the presumed source of cytokinin) renders the cotyledon leaves unable to expand. Exposure to cytokinin (0.02–22 μg/ml) results in a dramatic increase in fresh weight of cotyledons within 72 hours. This effect is not observed with either gibberellin or auxin and is usually delayed or inhibited by abscisic acid and the ethylene precursor, 1-aminocyclopropane-1-carboxylic acid (ACC). […] Thus, the mode of action of cytokinin in this system appears to be similar to that of indole-3-acetic acid (IAA) in auxin-induced stem elongation, a process that depends on an increase in the mechanical extensibility of the cell wall. However, cytokinin antagonizes IAA-mediated cell elongation and appears to do so by promoting ethylene production. Furthermore, cytokinin-induced cell expansion is not usually accompanied by proton (H^+) extrusion and no change in plasma membrane ATPase activity is evident.
Seeds of Raphanus sativus L. cv. Cherry-Belle were germinated in darkness at 24° C. for 36 h in Petri dishes containing filter paper wetted with distilled water. The smaller of the two cotyledons was excised, the fresh weight determined, and 10 cotyledons placed adaxial side down on filter paper in Petri dishes containing 10 ml of KPO4 buffer (2 mM, pH 6.0) and the compounds to be tested at 20 mg/l. […] Chlorophyll content was determined after extraction of tissue into 80% ethanol (containing butylated hydroxytoluene (BHT) 10 mg/l) using the equations Chl a=(13.95A663)−(6.88A647) and Chl b=(24.96A652)−(7.32A663) as described by Lichtenthaler, HK, Methods in Enzymology 148: 350–382, 1987, incorporated by reference in its entirety. FIG. 6 illustrates the difference in cotyledon size in response to the cytokinin kinetin.

[3] = Table 3, 48 h incubation, 20 mg/l
[4] = summary statement in the description

| Compound | number of ripened tomatoes compared to the control group ([1]; sprayed with 500 ppm) | number of ripened tomatoes compared to the control group ([1]; vacuum infiltrated with 20 ppm) | activity at 20 µg/mL (maize roots; experiment 1, 72 h) | activity at 20 µg/mL (maize roots; experiment 2, 36 h) | Ethylene (maize roots; experiment 2, 36 h illumination, roots incubated 2 h in darkness at 24° C.) | Chlorophyll a/b ([2]; Experiment 1, 20 mg/l, 72 h) | Change in fresh weight ([2]; Experiment 1, 20 mg/l, 72 h) | Chlorophyll (mg/g FW) a + b ([2]; Experiment 2, 20 mg/l, 48 h) | Chlorophyll (μg/cotyledon) a + b ([2]; Experiment 2, 20 mg/l, 48 h) | Chlorophyll a/b ([2]; Experiment 2, 20 mg/l, 48 h) | Change in fresh weight ([2]; Experiment 2, 20 mg/l, 48 h) | activity at 20 µg/mL ([2]; Experiment 1, 20 mg/l, 72 h) | activity at 20 µg/mL ([2]; Experiment 2, 20 mg/l, 48 h) | chlorophyll content per unit mass (in words) [2, 3] | chlorophyll per cotyledon (in words) [2, 3] | hormone-like activity with respect to expansion growth (in words) [2, 3] | cytokinin-like activities (summary of the examples) [2, 4] | ethylene-like activities (summary of the examples) [2, 4] |
| --- | --- | --- | --- | --- | --- | --- | --- | --- | --- | --- | --- | --- | --- | --- | --- | --- | --- | --- |
| CCCCCCCCCC(=O)NCCO [NAE-10:0, N-Decanoyl-2-aminoethanol] | higher number of ripened tomatoes | higher number of ripened tomatoes | 124% | 115% | 33.02 ± 9.63 pmol/g FW/h | 1.5 | 10.34 ± 3.28 mg | 1.41 mg/g FW | 22.57 μg/cotyledon | 1.8 | 11.56 ± 2.16 mg | 74% | 143% | decreased chlorophyll content per unit mass | increased chlorophyll per cotyledon | cytokinin-like activity | cytokinin-like activities | ethylene-like activities |
| CCCCCCCCCCCCCC(=O)NCCO [NAE-14:0, N-Tetradecanoyl-2-aminoethanol] | higher number of ripened tomatoes | higher number of ripened tomatoes |  |  |  |  |  | 1.90 mg/g FW | 23.41 μg/cotyledon | 1.8 | 7.91 ± 1.34 mg |  | 98% |  |  |  | cytokinin-like activities |  |
